# US20210369853A1, “TARGETED PROTEASE DEGRADATION PLATFORM” (EUBULUS BIOTHERAPEUTICS INC., priority 2018, published 2021)
# Test system: Human Monocytic Leukemia MV4-11
# Assay: Cell proliferation experiment (Alarm blue, 72 h, EC50)
# Assay type: cell-based
# Settings: Homo sapiens, MV4-11, MV4;11 cells
# Method: (2.1) Cell Proliferation Experiment:
# Reagents: RPMI-1640 medium, McCoy's 5A medium, IMDM medium, MEM medium, L-15 medium, fetal bovine serum, Penicillin-Streptomycin double antibody, trypsin, etc., 2-mercaptoethanol, NEAA, pyruvate, etc.
# The cells were cultured in conventional ways, and the cells should be passed at least for at least 2 generations before plating. Cells at the logarithmic growth phase are collected, prepared into single cell suspensions and counted. The concentration of cells was adjusted to the desired concentration, and cells were inoculated into a 96-well cell culture plate at 100 μl per well. 100 μL of complete medium of the test compound were added to each well, set up 2 duplicates for each concentration, and diluted with a 5-fold gradient, and continue to culture for 72 h. All cells were subjected to EC50 test for corresponding samples.
# The fluorescence intensity of each well was detected using the Alarm blue method, and EC50 was calculated.
# EC50 was calculated according to the following formula:
# Y=Max+(Min−Max)/[1+(X/EC50)×Slope]
# wherein Min, Max and Slope represent the minimum, maximum and slope respectively.
row,EC50 [nM],SMILES
1,100 to 1000,COc1cc(C(=O)NCCOCCNCCC(=O)Nc2cccc3c2CN(C2CCC(=O)NC2=O)C3=O)ccc1Nc1ncc2c(n1)N(C(C)C)[C@H](C)C(=O)N2C (stereo partly drawn) [UB-180697]
2,10 to 100,CC[C@@H]1C(=O)N(C)c2cnc(Nc3ccc(C(=O)NCCOCCOCCOCCNc4cccc5c4CN(C4CCC(=O)NC4=O)C5=O)cc3OC)nc2N1Cc1ccc(Br)cc1 (stereo partly drawn) [UB-180569]
3,> 1000,Cc1ncsc1-c1ccc(CNC(=O)[C@@H]2C[C@@H](O)CN2C(=O)[C@@H](NC(=O)COCCOCCNC(=O)[C@]2(Cc3cccc(Nc4nccs4)n3)CC[C@@H](Oc3cccc(Cl)c3F)CC2)C(C)(C)C)cc1 [UB-180587]
4,100 to 1000,CC[C@@H]1C(=O)N(C)c2cnc(Nc3ccc(C(=O)NCCNCC(=O)Nc4cccc5c4CN(C4CCC(=O)NC4=O)C5=O)cc3OC)nc2N1C1CCCC1 (stereo partly drawn) [UB-180694]
5,100 to 1000,COc1cc(C(=O)NCCOCCNCCCCCCC(=O)Nc2cccc3c2CN(C2CCC(=O)NC2=O)C3=O)ccc1Nc1ncc2c(n1)N(Cc1ccc(Br)cc1)CC(C)(C)C(=O)N2C (stereo not drawn) [UB-180672]
6,10 to 100,CC[C@@H]1C(=O)N(C)c2cnc(Nc3ccc(C(=O)NC4CCN(CCNCCCC(=O)Nc5cccc6c5CN(C5CCC(=O)NC5=O)C6=O)CC4)cc3OC)nc2N1C1CCCC1 (stereo partly drawn) [UB-180687]
7,> 1000,O=C1CCC(N2Cc3c(NC(=O)CCCNCCOCCOCCOCCNC(=O)[C@]4(Cc5cccc(Nc6nccs6)n5)CC[C@@H](Oc5cccc(Cl)c5F)CC4)cccc3C2=O)C(=O)N1 (stereo partly drawn) [UB-180779]
8,100 to 1000,O=C1CCC(N2Cc3c(NC(=O)CCOCCNCCN4CCC(NC(=O)[C@]5(Cc6cccc(Nc7nccs7)n6)CC[C@@H](Oc6cccc(Cl)c6F)CC5)CC4)cccc3C2=O)C(=O)N1 (stereo partly drawn) [UB-180769]
9,> 1000,CC[C@@H]1C(=O)N(C)c2cnc(Nc3ccc(C(=O)NCCC(=O)Nc4cccc5c4CN(C4CCC(=O)NC4=O)C5=O)cc3OC)nc2N1C1CCCC1 (stereo partly drawn) [UB-180618]
10,100 to 1000,O=C1CCC(N2Cc3c(NC(=O)CCNCCn4ncc(CNC(=O)[C@]5(Cc6cccc(Nc7nccs7)n6)CC[C@@H](Oc6cccc(Cl)c6F)CC5)n4)cccc3C2=O)C(=O)N1 (stereo partly drawn) [UB-180774]
11,100 to 1000,O=C1CCC(N2Cc3c(NC(=O)CCNCCOCCN4CCC(NC(=O)c5ccc(Nc6ncc7c(n6)-c6ccc(Cl)cc6C(c6c(F)cccc6F)=NC7)cc5)CC4)cccc3C2=O)C(=O)N1 (stereo not drawn) [UB-180775]
12,100 to 1000,Cc1sc2c(c1C)C(c1ccc(Cl)cc1)=N[C@@H](CC(=O)NCCOCCNCCCC(=O)Nc1cccc3c1CN(C1CCC(=O)NC1=O)C3=O)c1nnc(C)n1-2 (stereo partly drawn) [UB-180656]
13,100 to 1000,O=C1CCC(N2Cc3c(NC(=O)CNCCOCCOCCNC(=O)c4ccc(Nc5ncc6c(n5)-c5ccc(Cl)cc5C(c5c(F)cccc5F)=NC6)cc4)cccc3C2=O)C(=O)N1 (stereo not drawn) [UB-180809]
14,> 1000,Cc1ncsc1-c1ccc(CNC(=O)[C@@H]2C[C@@H](O)CN2C(=O)[C@@H](NC(=O)COCCOCCOCCOCCNC(=O)c2ccc(Nc3ncc4c(n3)-c3ccc(Cl)cc3C(c3c(F)cccc3F)=NC4)cc2)C(C)(C)C)cc1 [UB-180527]
15,100 to 1000,Cc1ncsc1-c1ccc(CNC(=O)[C@@H]2C[C@@H](O)CN2C(=O)[C@@H](NC(=O)COCCOCCOCCOCCNC(=O)[C@]2(Cc3cccc(Nc4nccs4)n3)CC[C@@H](Oc3cccc(Cl)c3F)CC2)C(C)(C)C)cc1 [UB-180580]
16,> 1000,Cc1ncsc1-c1ccc(CNC(=O)[C@@H]2C[C@@H](O)CN2C(=O)[C@@H](NC(=O)CCCNCCn2cc(COCCOCCOCCNC(=O)[C@]3(Cc4cccc(Nc5nccs5)n4)CC[C@@H](Oc4cccc(Cl)c4F)CC3)nn2)C(C)(C)C)cc1 [UB-180790]
17,10 to 100,CC[C@@H]1C(=O)N(C)c2cnc(Nc3ccc(C(=O)NCCCNCCN(C)CC(=O)Nc4cccc5c4CN(C4CCC(=O)NC4=O)C5=O)cc3OC)nc2N1C1CCCC1 (stereo partly drawn) [UB-180708]

row,EC50 [nM],SMILES
1,10 to 100,CC[C@@H]1C(=O)N(C)c2cnc(Nc3ccc(C(=O)NCCNCCC(=O)Nc4cccc5c4CN(C4CCC(=O)NC4=O)C5=O)cc3OC)nc2N1C1CCCC1 (stereo partly drawn) [UB-180682]
2,10 to 100,Cc1ncsc1-c1ccc(CNC(=O)[C@@H]2C[C@@H](O)CN2C(=O)[C@@H](NC(=O)CCOCCOCCOCCNC(=O)c2ccc(Nc3ncc4c(n3)-c3ccc(Cl)cc3C(c3c(F)cccc3F)=NC4)cc2)C(C)(C)C)cc1 [UB-180615]
3,> 1000,CC[C@@H]1c2c(C#N)ncn2-c2cnc(Nc3ccc(C(=O)NCCC(=O)Nc4cccc5c4CN(C4CCC(=O)NC4=O)C5=O)cc3OC)nc2N1C1CCCC1 (stereo partly drawn) [UB-180621]
4,100 to 1000,O=C1CCC(N2Cc3c(NC(=O)COCCNCCOCCOCCOCCNC(=O)[C@]4(Cc5cccc(Nc6nccs6)n5)CC[C@@H](Oc5cccc(Cl)c5F)CC4)cccc3C2=O)C(=O)N1 (stereo partly drawn) [UB-180793]
5,10 to 100,CC[C@@H]1C(=O)N(C)c2cnc(Nc3ccc(C(=O)NC4CCN(CCNCCCCC(=O)Nc5cccc6c5CN(C5CCC(=O)NC5=O)C6=O)C4)cc3OC)nc2N1C1CCCC1 (stereo partly drawn) [UB-180693]
6,100 to 1000,O=C1CCC(N2Cc3c(NC(=O)COCCNCCOCCOCCOCCNC(=O)c4ccc(Nc5ncc6c(n5)-c5ccc(Cl)cc5C(c5c(F)cccc5F)=NC6)cc4)cccc3C2=O)C(=O)N1 (stereo not drawn) [UB-180792]
7,100 to 1000,COc1cc(C(=O)NCCCNCCCCC(=O)Nc2cccc3c2CN(C2CCC(=O)NC2=O)C3=O)ccc1Nc1ncc2c(n1)N(Cc1ccc(Br)cc1)CC(C)(C)C(=O)N2C (stereo not drawn) [UB-180670]
8,100 to 1000,CC[C@@H]1C(=O)N(C)c2cnc(Nc3ccc(C(=O)NCCOCCOCCOCCN(CCC(=O)Nc4cccc5c4CN(C4CCC(=O)NC4=O)C5=O)C(=O)OCc4ccc(NC(=O)[C@H](CCCNC(N)=O)NC(=O)[C@@H](NC(=O)CCCCCN5C(=O)C=CC5=O)C(C)C)cc4)cc3OC)nc2N1C1CCCC1 (stereo partly drawn) [UB-180709]
9,100 to 1000,O=C1CCC(N2Cc3c(NC(=O)CNCCOCCn4cc(CNC(=O)[C@]5(Cc6cccc(Nc7nccs7)n6)CC[C@@H](Oc6cccc(Cl)c6F)CC5)nn4)cccc3C2=O)C(=O)N1 (stereo partly drawn) [UB-180742]
10,10 to 100,CC[C@@H]1C(=O)N(C)c2cnc(Nc3ccc(C(=O)NCCOCCNCCCCCCCC(=O)Nc4cccc5c4CN(C4CCC(=O)NC4=O)C5=O)cc3OC)nc2N1Cc1ccc(Br)cc1 (stereo partly drawn) [UB-180652]
11,> 1000,Cc1ncsc1-c1ccc(CNC(=O)[C@@H]2C[C@@H](O)CN2C(=O)[C@H](NC(=O)CCCNCCn2cc(COCCOCCNC(=O)c3ccc(Nc4ncc5c(n4)-c4ccc(Cl)cc4C(c4c(F)cccc4F)=NC5)cc3)nn2)C(C)(C)C)cc1 [UB-180787]
12,10 to 100,CC[C@@H]1C(=O)N(C)c2cnc(Nc3ccc(C(=O)NCCOCCOCCNc4cccc5c4CN(C4CCC(=O)NC4=O)C5=O)cc3OC)nc2N1Cc1ccc(Br)cc1 (stereo partly drawn) [UB-180568]
13,10 to 100,CC[C@@H]1C(=O)N(C)c2cnc(Nc3ccc(C(=O)NCCOCCNCCCCC(=O)Nc4cccc5c4CN(C4CCC(=O)NC4=O)C5=O)cc3OC)nc2N1C1CCCC1 (stereo partly drawn) [UB-180657]
14,10 to 100,CC[C@@H]1C(=O)N(C)c2cnc(Nc3ccc(C(=O)NC4CCN(CCNCCCC(=O)Nc5cccc6c5CN(C5CCC(=O)NC5=O)C6=O)CC4)cc3OC)nc2N1Cc1ccc(Br)cc1 (stereo partly drawn) [UB-180688]
15,> 1000,Cc1ncsc1-c1ccc(CNC(=O)[C@@H]2C[C@@H](O)CN2C(=O)[C@@H](NC(=O)CCNCCOCCOCCOCCNC(=O)[C@]2(Cc3cccc(Nc4nccs4)n3)CC[C@@H](Oc3cccc(Cl)c3F)CC2)C(C)(C)C)cc1 [UB-180782]
16,100 to 1000,CC[C@@H]1CN(C)c2cnc(Nc3ccc(C(=O)NCCOCCNCCC(=O)Nc4cccc5c4CN(C4CCC(=O)NC4=O)C5=O)cc3OC)nc2N1C(C)C (stereo partly drawn) [UB-180706]
